According to article PMC11923649, “Novel C-2 Aromatic Heterocycle-Substituted Triterpenoids Inhibit Hedgehog Signaling in GLI1 Overexpression Cancer Cells” (ACS Omega, 2025):

Key:
CEM-DNR = assay: MTS cytotoxicity assay, 72 h, CEM-DNR; format: cell-based; settings: Homo sapiens
[1] = system: K562 (chronic myelogenous leukemia); assay: MTS cytotoxicity assay, 72 h, K562; format: cell-based; settings: Homo sapiens
Summary of the method: (§1)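 Seed cells; next day add compound (50–0.0975 μmol/L, 2-fold steps); incubate 72 h, 37 °C, 5% CO2; add MTS/PMS, 1–4 h; read A490; fit IC50.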

[2] = system: nine cancer and two normal fibroblast derived cell lines; assay: MTS cytotoxicity assay, whole panel of 11 cell lines; format: cell-based; settings: 72 h, statement for whole panel
Description: Based on the preliminary results and tests of a larger library of known triterpenoids, a small set of 2-substituted lupane and 18α-oleanane derivatives was designed and synthesized. As the first step, the cytotoxic activity of the synthesized derivatives was assessed using an MTS assay following 72 h of treatment (Table 1). Selected cell lines A549 (lung adenocarcinoma) and DU-145 (prostate cancer) are both dependent on Hh signaling. In addition, K562 (chronic myelogenous leukemia) was included as a cell line sensitive to Hh inhibitors[32] and a type of hematological malignancy with active Hh signaling.[33] MRC-5 lung fibroblasts and BJ human skin fibroblasts cell lines were used to evaluate the toxicity against nontumor cells. Compounds were also tested using the standard panel of other cancer cell lines, as described in our earlier work (Table 1).[27]
The human prostate tumor-derived cell line DU145 was obtained from ATCC (American Type Culture Collection) and cultured in RPMI 1640 (Roswell Park Memorial Institute) medium supplemented with 10% (v/v) fetal bovine serum (FBS). Human prostate tumor-derived LNCaP cells were obtained from ATCC and cultured in RPMI 1640 medium supplemented with 10% FBS. […] Finally, the absorbance at 490 nm was measured using an EnVision multifunctional modular reader (PerkinElmer). The IC50 value was determined using Dotmatics software.

HCT 116 = assay: MTS cytotoxicity assay, 72 h, HCT 116; format: cell-based; settings: Homo sapiens, HCT-116, 72 h
Summary of the method: as §1

DU-145 (prostate cancer) = assay: MTS cytotoxicity assay, 72 h, DU-145; format: cell-based, human; settings: Homo sapiens, DU-145, 72 h
Summary of the method: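 Treatment ran 72 h at 37 °C under 5% CO2, starting the day after plating, across 50–0.0975 μmol/L (dilution factor 2). Metabolic conversion of MTS was read at 490 nm to obtain IC50.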

MRC-5 lung fibroblasts = assay: MTS cytotoxicity assay, 72 h, MRC-5 fibroblasts; format: cell-based, human; settings: normal fibroblasts; for IC50: Homo sapiens, MRC5, 72 h
Summary of the method: as §1

K562-TAX = assay: MTS cytotoxicity assay, 72 h, K562-TAX; format: cell-based
CCRF-CEM = assay: MTS cytotoxicity assay, 72 h, CCRF-CEM; format: cell-based; settings: for IC50: Homo sapiens, CCRF-CEM, 72 h, MTS
Summary of the method: as §1

U2OS = assay: MTS cytotoxicity assay, 72 h, U2OS; format: cell-based; settings: Homo sapiens
HCT116 p53–/– = assay: MTS cytotoxicity assay, 72 h, HCT116 p53–/–; format: cell-based; settings: Homo sapiens, HCT-116, 72 h
Summary of the method: as §1

[3] = system: BJ human skin fibroblasts; assay: MTS cytotoxicity assay, 72 h, BJ fibroblasts; format: cell-based; settings: normal fibroblasts; for IC50: Homo sapiens, Skin fibroblast
Summary of the method: as §1

[4] = system: A549 (lung adenocarcinoma); assay: MTS cytotoxicity assay, 72 h, A549; format: cell-based; settings: Homo sapiens, A549, 72 h
Summary of the method: as §1

[5] = IC50 of CCRF-CEM line vs average of both fibroblasts (BJ and MRC-5), Table 1

SMILES	IC50 (CEM-DNR; Table 1) [µM]	IC50 (CEM-DNR; full Table S1) [µM]	IC50 ([1]; Table 1) [µM]	IC50 (HCT 116; Table 1) [µM]	IC50 (HCT 116; full Table S1) [µM]	IC50 (DU-145 (prostate cancer); Table 1) [µM]	IC50 (DU-145 (prostate cancer); full Table S1) [µM]	IC50 (MRC-5 lung fibroblasts; Table 1) [µM]	IC50 (MRC-5 lung fibroblasts; full Table S1) [µM]	IC50 (K562-TAX; Table 1) [µM]	IC50 (K562-TAX; full Table S1) [µM]	IC50 (CCRF-CEM; Table 1) [µM]	SI (selectivity index) (CCRF-CEM; [5])	IC50 (U2OS; Table 1) [µM]	IC50 (U2OS; full Table S1) [µM]	IC50 (HCT116 p53–/–; Table 1) [µM]	IC50 (HCT116 p53–/–; full Table S1) [µM]	IC50 ([3]; Table 1) [µM]	IC50 ([4]; Table 1) [µM]	IC50 ([4]; full Table S1) [µM]	further results
CC1(C)C(=O)C(c2ccc3cn[nH]c3c2)=C[C@@]2(C)C1CC[C@]1(C)C2CCC2C3[C@H]4OC[C@@]3(CCC4(C)C)CC[C@]21C (stereo partly drawn) [Compound 4n, 2-(Indazol-6-yl)-19β,28-epoxyolean-1-en-3-one]	24	24.1	23	31	30.6	24	23.9	33	33.2	16	16.8	18	2.1	25	24.5	31	30.6	42	30	29.5	IC50 ([1]; full Table S1): 22.5 µM; Cytotoxic activity (IC50) on these 11 cell lines [2]: weak cytotoxicity; IC50 ([3]; full Table S1): 42.2 µM
C=C(C)[C@@H]1CC[C@]2(C(=O)OCc3ccccc3)CC[C@]3(C)C(CCC4[C@@]5(C)C=C(c6ccc7cn[nH]c7c6)C(=O)C(C)(C)C5CC[C@]43C)C12 (stereo partly shown) [Compound 10n, Benzyl 2-(Indazol-6-yl)-3-oxolupa-1,20(29)-dien-28-oate]		> 50			> 50		> 50		> 50		> 50				> 50		> 50			> 50	IC50 ([1]; full Table S1): > 50 µM; SI (selectivity index) (CCRF-CEM; CCRF-CEM vs average of BJ and MRC-5, full Table S1): > 1.0; IC50 (CCRF-CEM; full Table S1): > 50 µM; IC50 ([3]; full Table S1): > 50 µM
C=C(C)[C@@H]1CC[C@]2(C(=O)O)CC[C@]3(C)C(CCC4[C@@]5(C)C=C(c6cccnc6)C(=O)C(C)(C)C5CC[C@]43C)C12 (stereo partly shown) [Compound 11g, 2-(Pyridin-3-yl)-3-oxolupa-1,20(29)-dien-28-oic acid]	21	20.5	> 50	34	33.5	11	11.1	> 50		20		18	>2.8	44	44.4	40	39.6	> 50	35	34.8	IC50 MRC-5 (MRC-5 lung fibroblasts; Table 1): below the detection limit; IC50 (CCRF-CEM; full Table S1): 18.1 µM; IC50 BJ ([3]; Table 1): below the detection limit
C=C(C)[C@@H]1CC[C@]2(C(=O)O)CC[C@]3(C)C(CCC4[C@@]5(C)C=C(c6ccncc6)C(=O)C(C)(C)C5CC[C@]43C)C12 (stereo partly shown) [Compound 11h, 2-(Pyridin-4-yl)-3-oxolupa-1,20(29)-dien-28-oic acid]	17		> 50	25	25.1	11	10.8	> 50		11	10.8	5.2	>9.5	28	28.4	31	30.6	> 50	21	21.3	IC50 MRC-5 (MRC-5 lung fibroblasts; Table 1): below the detection limit; IC50 BJ ([3]; Table 1): below the detection limit
C=C(C)[C@@H]1CC[C@]2(C(=O)O)CC[C@]3(C)C(CCC4[C@@]5(C)C=C(c6cncnc6)C(=O)C(C)(C)C5CC[C@]43C)C12 (stereo partly shown) [Compound 11i, 2-(Pyrimidin-5-yl)-3-oxolupa-1,20(29)-dien-28-oic acid]	42	41.8	> 50	35	34.6	18	17.5	> 50		25		19.7	>2.5	> 50		41		> 50	> 50		
C=C(C)[C@@H]1CC[C@]2(C(=O)O)CC[C@]3(C)C(CCC4[C@@]5(C)C=C(c6ccc7c(c6)OCCO7)C(=O)C(C)(C)C5CC[C@]43C)C12 (stereo partly shown) [Compound 11j, 2-(1,4-Benzodioxan)-3-oxolupa-1,20(29)-dien-28-oic acid]	24		7.5	22	22.1	7		28	27.8	17	16.5	4.9	>7.9	22	21.9	21	20.9	> 50	14	13.5	
C=C(C)[C@@H]1CC[C@]2(C(=O)O)CC[C@]3(C)C(CCC4[C@@]5(C)C=C(c6cncc7ccccc67)C(=O)C(C)(C)C5CC[C@]43C)C12 (stereo partly shown) [Compound 11l, 2-(Isoquinoline)-3-oxolupa-1,20(29)-dien-28-oic acid]	17		> 50	19	18.5	8.3		> 50		8.7		7.2	>7.0	25	24.8	31	30.8	> 50	14	13.9	IC50 MRC-5 (MRC-5 lung fibroblasts; Table 1): below the detection limit; IC50 BJ ([3]; Table 1): below the detection limit
C=C(C)[C@@H]1CC[C@]2(C(=O)O)CC[C@]3(C)C(CCC4[C@@]5(C)C=C(c6ccc7cn[nH]c7c6)C(=O)C(C)(C)C5CC[C@]43C)C12 (stereo partly shown) [Compound 11n, 2-(Indazol-6-yl)-3-oxolupa-1,20(29)-dien-28-oic acid]	22	21.9	22	15	14.9	8.3		27	26.5	12	12.1	4.9	6.3	21	20.5	17	16.8	35	15	15.1	IC50 ([1]; full Table S1): 22.3 µM; IC50 ([3]; full Table S1): 35.1 µM
